# Assay results published in patent publication US20050159365A1, “Hepatits c virus inhibitor comprising alpha-glycosylceramide as the active ingredient” (Kirin Beer Kabushiki Kaisha, priority 2002, published 2005).
# Like-named read-outs stand apart in the source and are kept apart here.
# How the values were obtained:
# Format in all cases: in vivo
# leukocytes = assay: Total leukocyte, neutrophil and lymphocyte counts in blood of HCV-infected chimpanzees; conditions: 10 μg/kg i.v.
# From the text: (§1) Chimpanzees are the only test animals that can be persistently infected with hepatitis C viruses. Thus, 2 chimpanzees were selected as test animals for this experiment from the chimpanzee-dedicated facility (Kumamoto Primates Park, Sanwa Kagaku Kenkyusho Colo., Ltd.) where chimpanzees including hepatitis C virus carriers have been artificially bred and propagated over a long period of time. This experiment was examined and approved by the Experiment Review Board in advance in terms of ethics and test contents, and pain inflicted on chimpanzees was eliminated as much as possible during the experiment. Two chimpanzees employed in the experiment are hereafter referred to as Animal No. C33 (the duration of persistent infection with HCV (1a): 22 years) and Animal No. C54 (the duration of persistent infection with HCV (1b): 20 years), respectively.
# (§2) After an acclimation period of approximately 1 month, KRN7000 was intravenously administered two times to animals at the rate of 10 μg/kg at the interval of 28 days (day 0 and day 28). […] The total leukocyte count was measured using an automated blood cell counter Sysmex K4500 (Sysmex Corporation). The leukocyte percentage was determined by coating whole blood onto a fat-free slide glass, immobilizing it thereon, staining with Diff-Quick (International Reagents Corp.), and microscopically examining 200 leukocytes. Neutrophil and lymphocyte counts were calculated by multiplying the obtained values with the total leukocyte count. The NKT cell percentage in the T cells was determined by: staining the whole blood with an anti-human TCR Vα24 antibody (Beckman Coulter), KRN7000 (α-GalCer)-bound human CD1d tetramer, and an anti-human CD3 antibody (Becton Dickinson Japan) that are labeled with different fluorescent dyes; lysing the stained whole blood with the FACS Lysing Solution (Becton Dickinson Japan); immobilizing thereof; and then determining the NKT cell ratio using the FACSCalibur (Becton Dickinson Japan). […]
# [1] = Serum KRN7000 levels by LC-MS/MS after intravenous administration to HCV-infected chimpanzees; conditions: for Concentration in blood (serum KRN7000 level): before administration; for concentration at 15 min / concentration at 6 h: chimpanzee, serum, iv, 10 μg/kg, read-out: Concentration in blood (serum KRN7000 level); for concentration at 15 min: 15 minutes later; for concentration at 6 h: 6 hours later
# From the text: as §1
# After an acclimation period of approximately 1 month, KRN7000 was intravenously administered two times to animals at the rate of 10 μg/kg at the interval of 28 days (day 0 and day 28). In order to obtain samples for verifying the responses of chimpanzees to KRN7000 and efficacy of KRN7000 on chronic HCV infections, blood drawing was carried out before and after each administration. The total leukocyte count was measured using an automated blood cell counter Sysmex K4500 (Sysmex Corporation). The leukocyte percentage was determined by coating whole blood onto a fat-free slide glass, immobilizing it thereon, staining with Diff-Quick (International Reagents Corp.), and microscopically examining 200 leukocytes. Neutrophil and lymphocyte counts were calculated by multiplying the obtained values with the total leukocyte count. The NKT cell percentage in the T cells was determined by: staining the whole blood with an anti-human TCR Vα24 antibody (Beckman Coulter), KRN7000 (α-GalCer)-bound human CD1d tetramer, and an anti-human CD3 antibody (Becton Dickinson Japan) that are labeled with different fluorescent dyes; lysing the stained whole blood with the FACS Lysing Solution (Becton Dickinson Japan); immobilizing thereof; and then determining the NKT cell ratio using the FACSCalibur (Becton Dickinson Japan). Cells that had responded to all of the anti-human TCR Vα24 antibody, the tetramer, and the anti-human CD3 antibody were determined to be the NKT cells of the chimpanzees. The activities of alanine aminotransferase (ALT), aspartate aminotransferase (AST), and lactate dehydrogenase (LDH) in serums were assayed using an automatic analyzer. The serum HCV-RNA levels were assayed by RT-PCR using the AMPLICOR® GT HCV monitor (Roche Diagnostics) and branched DNA (bDNA) probe assay using the Quantiplex HCV-RNA 2 (Bayer Corporation). The serum KRN7000 levels were assayed by liquid chromatography and tandem mass spectrometry (LC-MS/MS).
# [2] = Serum ALT, AST and LDH activities in HCV-infected chimpanzees; conditions: both chimpanzees, both stages; peaks 1 day or 3 days after administration, then returned to levels before administration
# From the text: as §1, §2
# hepatitis C virus = assay: Serum HCV-RNA levels (RT-PCR, bDNA probe assay) in chimpanzees persistently infected with hepatitis C virus
# From the text: as §1, §2
# NKT cells = assay: NKT cell percentage in the T cells by FACS in HCV-infected chimpanzees
# From the text: as §1, with “Two chimpanzees employed in the experiment are hereafter referred to as Animal No. C33 (the duration of persistent infection with HCV (1a): 22 years) and Animal No. C54 (the duration of persistent infection with HCV (1b): 20 years), respectively.” left out
# After an acclimation period of approximately 1 month, KRN7000 was intravenously administered two times to animals at the rate of 10 μg/kg at the interval of 28 days (day 0 and day 28). […] The total leukocyte count was measured using an automated blood cell counter Sysmex K4500 (Sysmex Corporation). The leukocyte percentage was determined by coating whole blood onto a fat-free slide glass, immobilizing it thereon, staining with Diff-Quick (International Reagents Corp.), and microscopically examining 200 leukocytes. Neutrophil and lymphocyte counts were calculated by multiplying the obtained values with the total leukocyte count. […]
# [3] = Animal C33, first administration (10 μg/kg i.v., day 0)
# [4] = Animal C33, second administration (10 μg/kg i.v., day 28)
# [5] = Animal C54, first administration (10 μg/kg i.v., day 0)
# [6] = Animal C54, second administration (10 μg/kg i.v., day 28)
compound,measurement,setting,value
"CCCCCCCCCCCCCCCCCCCCCCCCCC(=O)N[C@@H](CO[C@H]1O[C@H](CO)[C@H](O)[C@H](O)[C@H]1O)[C@H](O)[C@H](O)CCCCCCCCCCCCCC [KRN7000, (2S,3S,4R)-1-(α-D-galactopyranosyloxy)-2-hexacosanoylamino-3,4-octadecanediol]",Lymphocyte count,"leukocytes; 6 hours after the administration, some exceptions",decreased
same,Neutrophil count,"leukocytes; both chimpanzees, both stages of administration, 6 hours later",increased
same,Total leukocyte count,"leukocytes; in many cases, after administration",transiently increased
same,Concentration in blood (serum KRN7000 level),[1]; [3],<10 ng/mL
same,Concentration in blood (serum KRN7000 level),[1]; [4],<10 ng/mL
same,Concentration in blood (serum KRN7000 level),[1]; [5],<10 ng/mL
same,Concentration in blood (serum KRN7000 level),[1]; [6],<10 ng/mL
same,Time after administration at which maximum serum levels of KRN7000 were detected,"[1]; both chimpanzees, both stages, 10 μg/kg i.v.",15 min
same,concentration at 15 min,[1]; [3],89 ng/mL
same,concentration at 6 h,[1]; [3],38 ng/mL
same,concentration at 15 min,[1]; [4],97 ng/mL
same,concentration at 6 h,[1]; [4],58 ng/mL
same,concentration at 15 min,[1]; [5],129 ng/mL
same,concentration at 6 h,[1]; [5],42 ng/mL
same,concentration at 15 min,[1]; [6],141 ng/mL
same,concentration at 6 h,[1]; [6],77 ng/mL
same,Serum ALT activity,[2],transiently and mildly elevated
same,Serum AST activity,[2],transiently and mildly elevated
same,Serum LDH activity,[2],transiently and mildly elevated
same,Effect on chimpanzees infected with chronic HCV (overall conclusion),hepatitis C virus; 10 μg/kg i.v. two times at interval of 28 days,anti-HCV effects
same,"HCV-RNA levels, second administration (day 28) compared with initial administration (day 0)","hepatitis C virus; 10 μg/kg i.v., day 0 and day 28",continuously decreased
same,Serum HCV-RNA levels,"hepatitis C virus; both chimpanzees (HCV 1a, 1b), 1 day or 3 days after administration, both stages, 10 μg/kg i.v., RT-PCR or bDNA",apparent decreases
same,"NKT cells, course after disappearance","NKT cells; Test Animal No. C54, after the administration",gradually showed a tendency to recover
same,NKT cells (ratio of NKT cell count to T cell count),"NKT cells; day following both administrations, both chimpanzees, 10 μg/kg i.v.",not detected
